In US7256187B2, “Rifamycin C-11 oxime derivatives effective against drug-resistant microbes” (Cumbre Pharmaceuticals Inc., priority 2004, dated 2007):
In brackets after ≈: the same amount, converted by molar mass.

What was measured:
Type in all cases: cell-based
[1] = tested on: Staphylococcus aureus ATCC29213 rpoB^H418Y; test: microbe, parasite or virus in culture; conditions: Staphylococcus aureus ATCC29213 rpoB^H418Y, rifR; read-out: Antimicrobial activity (MIC)
Experimental: (§1) Representative compounds were assayed for antimicrobial activity as follows: Minimum Inhibitory Concentrations (“MICs”) were determined by the microbroth dilution method as per NCCLS guidelines (National Committee for Clinical Laboratory Standards. 2000. Methods for dilution antimicrobial susceptibility tests for bacteria that grow aerobically, 5th ed. M7-A5. National Committee for Clinical Laboratory Standards, Wayne, Pa.), except that all growth incubations were conducted at 37° C. Bacterial cultures were tested in the following bacteriological media: S. aureus, S. epidermidis, and E. coli in Cation-Adjusted Mueller-Hinton Broth, S. pneumoniae in THY Broth supplemented with 1 mg/mL catalase under 5% CO2 atmosphere, S. pyogenes in THY Broth, E. faecalis in BHI Broth, H. influenzae in BHI Broth supplemented with 0.75 μL of 1 mg/mL NAD and 150 μL of 1 mg/ml hematin per 5 mL, and M. smegmatis in Middlebrook Broth plus ADC Enrichment.
(§2) S. aureus ATCC 29213 RpoB^H418Y is a rifampin-resistant strain with a mutation in the RpoB gene of RNA polymerase. […] S. aureus EN1252a gyrA^S84L grlA^S80F is a quinolone-resistant strain due to double gene mutations of DNA gyrase and topoisomerase IV.

[2] = tested on: Staphylococcus aureus ATCC29213 rpoB^D417Y; test: microbe, parasite or virus in culture; conditions: Staphylococcus aureus ATCC29213 rpoB^D417Y, rifR; read-out: Antimicrobial activity (MIC)
Experimental: as §1, §2

[3] = tested on: Staphylococcus aureus EN1252a gyrA^S84L grlA^S80F; test: microbe, parasite or virus in culture; conditions: Staphylococcus aureus EN1252a gyrA^S84L grlA^S80F, cipR; read-out: Antimicrobial activity (MIC)
Experimental: as §1, §2

[4] = tested on: Mycobacterium smegmatis ATCC700084; test: MIC, microbroth dilution; conditions: Mycolicibacterium smegmatis; Mycobacterium smegmatis ATCC700084, rifS; read-out: Antimicrobial activity (MIC)
[5] = tested on: Staphylococcus epidermidis ATCC12228; test: MIC, microbroth dilution; conditions: Staphylococcus epidermidis ATCC12228, rifS; read-out: Antimicrobial activity (MIC)
[6] = tested on: Staphylococcus aureus ATCC29213; test: MIC, microbroth dilution; conditions: Staphylococcus aureus ATCC29213, rifS; read-out: Antimicrobial activity (MIC)
[7] = tested on: Escherichia coli ATCC25922; test: MIC, microbroth dilution; conditions: Escherichia coli ATCC25922, rifS; read-out: Antimicrobial activity (MIC)
[8] = tested on: Haemophilus influenzae ATCC10211; test: MIC, microbroth dilution; conditions: Haemophilus influenzae ATCC10211, rifS; read-out: Antimicrobial activity (MIC)
[9] = tested on: Streptococcus pyogenes ATCC19615; test: MIC, microbroth dilution; conditions: Streptococcus pyogenes ATCC19615, rifS; read-out: Antimicrobial activity (MIC)
[10] = tested on: Streptococcus pneumoniae ATCC6303; test: MIC, microbroth dilution; conditions: Streptococcus pneumoniae ATCC6303, rifS; read-out: Antimicrobial activity (MIC)
[11] = tested on: Enterococcus faecalis ATCC29212; test: MIC, microbroth dilution; conditions: Enterococcus faecalis ATCC29212, rifS; read-out: Antimicrobial activity (MIC)

Row | Compound | MIC [1] [µg/mL] | MIC [2] [µg/mL] | MIC [3] [µg/mL] | MIC [4] [µg/mL] | MIC [5] [µg/mL] | MIC [6] [µg/mL] | MIC [7] [µg/mL] | MIC [8] [µg/mL] | MIC [9] [µg/mL] | MIC [10] [µg/mL] | MIC [11] [µg/mL]
1 | CO[C@H]1/C=C/O[C@@]2(C)Oc3c(C)c(O)c4c(c3/C2=N/O)C(=O)C(/C=N/N2CCN(C)CC2)=C(NC(=O)/C(C)=C\C=C\[C@H](C)[C@H](O)[C@@H](C)[C@@H](O)[C@@H](C)[C@H](OC(C)=O)[C@@H]1C)C4=O [Example 38, 11-Deoxy-11-hydroxyimino-3-(4-methylpiperazin-1-yl)aminomethenylrifamycin S] | 0.125 to 16 (≈ 0.15 to 19.1 µM) | 0.25 to 32 (≈ 0.299 to 38.3 µM) | 0.004 to 0.5 (≈ 0.00478 to 0.598 µM) | 0.5 to 64 (≈ 0.598 to 76.6 µM) | 0.0005 to 0.063 (≈ 0.000598 to 0.0754 µM) | 0.004 to 0.5 (≈ 0.00478 to 0.598 µM) | 0.125 to 8 (≈ 0.15 to 9.57 µM) | 0.03 to 2 (≈ 0.0359 to 2.39 µM) | 0.0005 to 0.063 (≈ 0.000598 to 0.0754 µM) | 0.0002 to 0.125 (≈ 0.000239 to 0.15 µM) | 2 to 32 (≈ 2.39 to 38.3 µM)
2 | CO[C@H]1/C=C/O[C@@]2(C)Oc3c(C)c(O)c4c(c3/C2=N/O)/C(=N/O)C=C(NC(=O)/C(C)=C\C=C\[C@H](C)[C@H](O)[C@@H](C)[C@@H](O)[C@@H](C)[C@H](OC(C)=O)[C@@H]1C)C4=O [Example 4, 4, 11-Dideoxy-4,11-dihydroxyiminorifamycin S] | 0.125 to 16 (≈ 0.172 to 22 µM) | 0.25 to 32 (≈ 0.344 to 44.1 µM) | 0.004 to 0.5 (≈ 0.00551 to 0.689 µM) | 0.5 to 64 (≈ 0.689 to 88.2 µM) | 0.0005 to 0.063 (≈ 0.000689 to 0.0868 µM) | 0.004 to 0.5 (≈ 0.00551 to 0.689 µM) | 0.125 to 8 (≈ 0.172 to 11 µM) | 0.03 to 2 (≈ 0.0413 to 2.76 µM) | 0.0005 to 0.063 (≈ 0.000689 to 0.0868 µM) | 0.0002 to 0.125 (≈ 0.000276 to 0.172 µM) | 2 to 32 (≈ 2.76 to 44.1 µM)
3 | CO/N=C1/c2c3c(C)c(O)c4c2C(=O)C(N2CCOCC2)=C(NC(=O)/C(C)=C\C=C\[C@H](C)[C@H](O)[C@@H](C)[C@@H](O)[C@@H](C)[C@H](OC(C)=O)[C@H](C)[C@@H](OC)/C=C/O[C@@]1(C)O3)C4=O [Example 35, 11-Deoxy-3-(morpholin-4-yl)-11-methoxyiminorifamycin S] | 0.125 to 16 (≈ 0.154 to 19.8 µM) | 0.25 to 32 (≈ 0.309 to 39.5 µM) | 0.004 to 0.5 (≈ 0.00494 to 0.617 µM) | 0.5 to 64 (≈ 0.617 to 79 µM) | 0.0005 to 0.063 (≈ 0.000617 to 0.0778 µM) | 0.004 to 0.5 (≈ 0.00494 to 0.617 µM) | 0.125 to 8 (≈ 0.154 to 9.88 µM) | 0.03 to 2 (≈ 0.037 to 2.47 µM) | 0.0005 to 0.063 (≈ 0.000617 to 0.0778 µM) | 0.0002 to 0.125 (≈ 0.000247 to 0.154 µM) | 2 to 32 (≈ 2.47 to 39.5 µM)
4 | CO[C@H]1/C=C/O[C@@]2(C)Oc3c(C)c(O)c4c(c3/C2=N/OC(=O)c2ccncc2)C(=O)C=C(NC(=O)/C(C)=C\C=C\[C@H](C)[C@H](O)[C@@H](C)[C@@H](O)[C@@H](C)[C@H](OC(C)=O)[C@@H]1C)C4=O [Example 8, 11-Deoxy-11-(4-pyridylcarboxy)iminorifamycin S] | 0.125 to 16 (≈ 0.153 to 19.6 µM) | 0.25 to 32 (≈ 0.306 to 39.2 µM) | 0.004 to 0.5 (≈ 0.0049 to 0.613 µM) | 0.5 to 64 (≈ 0.613 to 78.4 µM) | 0.0005 to 0.063 (≈ 0.000613 to 0.0772 µM) | 0.004 to 0.5 (≈ 0.0049 to 0.613 µM) | 0.125 to 8 (≈ 0.153 to 9.81 µM) | 0.03 to 2 (≈ 0.0368 to 2.45 µM) | 0.0005 to 0.063 (≈ 0.000613 to 0.0772 µM) | 0.0002 to 0.125 (≈ 0.000245 to 0.153 µM) | 2 to 32 (≈ 2.45 to 39.2 µM)
5 | CO/N=C1/c2c3c(C)c(O)c4c2/C(=N/OC)C=C(NC(=O)/C(C)=C\C=C\[C@H](C)[C@H](O)[C@@H](C)[C@@H](O)[C@@H](C)[C@H](OC(C)=O)[C@H](C)[C@@H](OC)/C=C/O[C@@]1(C)O3)C4=O [Example 5, 4, 11-Dideoxy-4, 11-dimethoxyiminorifamycin S] | 0.125 to 16 (≈ 0.166 to 21.2 µM) | 0.25 to 32 (≈ 0.332 to 42.4 µM) | 0.004 to 0.5 (≈ 0.00531 to 0.663 µM) | 0.5 to 64 (≈ 0.663 to 84.9 µM) | 0.0005 to 0.063 (≈ 0.000663 to 0.0836 µM) | 0.004 to 0.5 (≈ 0.00531 to 0.663 µM) | 0.125 to 8 (≈ 0.166 to 10.6 µM) | 0.03 to 2 (≈ 0.0398 to 2.65 µM) | 0.0005 to 0.063 (≈ 0.000663 to 0.0836 µM) | 0.0002 to 0.125 (≈ 0.000265 to 0.166 µM) | 2 to 32 (≈ 2.65 to 42.4 µM)
6 | CO[C@H]1/C=C/O[C@@]2(C)Oc3c(C)c(O)c4c(c3/C2=N/O)C(=O)C(N2CCN(c3cc5c(cc3F)c(=O)c(C(=O)O)cn5C3CC3)CC2)=C(NC(=O)/C(C)=C\C=C\[C@H](C)[C@H](O)[C@@H](C)[C@@H](O)[C@@H](C)[C@H](OC(C)=O)[C@@H]1C)C4=O [Example 33, 11-Deoxy-3-[4-(3-carboxy-1-cyclopropyl-6-fluoro-4-oxo-1,4-dihydroquinolin-7-yl)piperazin-1-yl]-11-hydroxyiminorifamycin S] | 0.125 to 16 (≈ 0.12 to 15.4 µM) | 0.25 to 32 (≈ 0.24 to 30.8 µM) | 0.004 to 0.5 (≈ 0.00385 to 0.481 µM) | 0.5 to 64 (≈ 0.481 to 61.5 µM) | 0.0005 to 0.063 (≈ 0.000481 to 0.0606 µM) | 0.004 to 0.5 (≈ 0.00385 to 0.481 µM) | 0.125 to 8 (≈ 0.12 to 7.69 µM) | 0.03 to 2 (≈ 0.0288 to 1.92 µM) | 0.0005 to 0.063 (≈ 0.000481 to 0.0606 µM) | 0.0002 to 0.125 (≈ 0.000192 to 0.12 µM) | 2 to 32 (≈ 1.92 to 30.8 µM)
